Measurements as given in PMC8262356, “SLC26A6-selective inhibitor identified in a small-molecule screen blocks fluid absorption in small intestine” (JCI Insight, 2021).

Legend:
[1] = molecular target: T1, PAT1 (murine slc26a6) (Mus musculus, UniProt Q8CIW6); assay: PAT1-mediated Cl-/HCO3- exchange, cytoplasmic pH in BCECF-loaded FRT cells; assay type: cell-based; settings: read-out: IC50, inhibition of Cl-/HCO3- exchange
T1 construct: host or cells: Fischer rat thyroid (FRT) cells, lentiviral transduction (pLVX-IRES-mCherry-slc26a6), clonal line FRT-YFP-slc26a6
T1 sequence (Q8CIW6 24-758 limits assumed): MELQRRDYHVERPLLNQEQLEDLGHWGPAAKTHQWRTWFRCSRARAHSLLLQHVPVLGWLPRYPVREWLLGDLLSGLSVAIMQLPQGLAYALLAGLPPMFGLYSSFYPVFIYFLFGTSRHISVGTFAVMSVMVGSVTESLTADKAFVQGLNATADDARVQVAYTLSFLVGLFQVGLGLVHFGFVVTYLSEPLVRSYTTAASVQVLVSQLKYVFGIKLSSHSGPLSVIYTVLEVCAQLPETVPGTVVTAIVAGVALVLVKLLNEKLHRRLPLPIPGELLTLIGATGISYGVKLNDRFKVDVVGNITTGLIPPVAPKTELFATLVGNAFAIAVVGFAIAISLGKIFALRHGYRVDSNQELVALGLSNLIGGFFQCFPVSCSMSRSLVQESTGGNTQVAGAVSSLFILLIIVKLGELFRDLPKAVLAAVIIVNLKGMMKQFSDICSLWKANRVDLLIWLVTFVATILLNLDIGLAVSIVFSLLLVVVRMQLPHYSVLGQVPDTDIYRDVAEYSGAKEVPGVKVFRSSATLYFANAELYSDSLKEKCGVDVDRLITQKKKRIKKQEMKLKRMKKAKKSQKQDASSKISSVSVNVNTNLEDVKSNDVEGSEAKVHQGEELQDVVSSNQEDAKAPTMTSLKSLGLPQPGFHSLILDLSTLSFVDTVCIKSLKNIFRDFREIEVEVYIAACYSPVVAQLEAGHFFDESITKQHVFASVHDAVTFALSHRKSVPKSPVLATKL
Experimental: As PAT1 functions as a general monovalent anion exchanger, PAT1inh-B01 inhibition was studied for different modes of anion exchange. […] To measure Cl^–/HCO3^– exchange, the time course of cytoplasmic pH was measured, using BCECF as a pH indicator, in response to a gluconate gradient to drive exchange of cytoplasmic Cl^– with extracellular HCO3^– producing cytoplasmic alkalinization (Figure 2B) as done before for DRA and pendrin ([7], [10], [11]).
YFP-based cellular assays of slc26a3, slc26a4, SLC26A9, and TMEM16A function were performed as described previously ([7]). Slc26a1 and slc26a2 assays were done in transfected HEK 293 cells (see Supplemental Methods for details). Niflumic acid was used as a positive control for SLC26A isoforms ([7]). For TMEM16A, the selective small-molecule inhibitor TMinh-23 was used as a positive control ([28]). The activities of ENaC, CFTR, and CaCC were determined using well-differentiated HBE cells as described previously ([13]). Cl^–/HCO3^– exchange was measured as described previously ([7], [10], [11]). Briefly, cell cytoplasm was labeled with the pH-sensitive fluorescent dye BCECF-AM (Invitrogen), and Cl^–/HCO3^– exchange was measured in response to addition of a gluconate-containing solution to drive exchange of cytoplasmic Cl^– for extracellular HCO3^–, producing cytoplasmic alkalinization.

[2] = molecular target: T2, slc26a3 (Mus musculus, UniProt Q9WVC8); assay: Selectivity: Cl-/I- exchange in FRT cells coexpressing YFP and slc26a3; assay type: cell-based; settings: 25 μM
T2 construct: expressed in transfected cells; host or cells: FRT cells coexpressing YFP
T2 sequence (Q9WVC8 1-757): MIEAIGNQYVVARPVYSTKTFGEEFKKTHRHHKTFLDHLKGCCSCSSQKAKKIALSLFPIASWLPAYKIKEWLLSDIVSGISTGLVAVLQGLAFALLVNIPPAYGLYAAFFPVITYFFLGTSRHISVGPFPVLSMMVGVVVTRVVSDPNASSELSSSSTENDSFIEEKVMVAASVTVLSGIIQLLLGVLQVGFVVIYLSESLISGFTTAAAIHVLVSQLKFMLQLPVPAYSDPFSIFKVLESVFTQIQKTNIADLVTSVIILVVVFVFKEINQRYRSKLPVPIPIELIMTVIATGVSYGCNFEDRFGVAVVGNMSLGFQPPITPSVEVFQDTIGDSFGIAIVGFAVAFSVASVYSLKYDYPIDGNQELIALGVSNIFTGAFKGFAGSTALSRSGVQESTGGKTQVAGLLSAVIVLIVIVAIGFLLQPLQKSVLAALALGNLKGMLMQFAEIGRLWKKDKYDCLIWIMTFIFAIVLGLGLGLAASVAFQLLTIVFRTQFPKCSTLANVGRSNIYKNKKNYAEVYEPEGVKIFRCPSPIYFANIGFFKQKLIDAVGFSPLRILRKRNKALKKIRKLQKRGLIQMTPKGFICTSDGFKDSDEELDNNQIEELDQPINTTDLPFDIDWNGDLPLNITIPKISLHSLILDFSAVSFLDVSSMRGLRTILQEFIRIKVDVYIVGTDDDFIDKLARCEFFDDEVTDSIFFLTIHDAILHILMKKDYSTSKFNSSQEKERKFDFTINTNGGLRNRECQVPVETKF
Experimental: PAT1inh-B01 selectivity was studied by testing its effects on related SLC26A family anion transporters and the Cl^– channel TMEM16A. These measurements used a similar Cl^–/I^– exchange protocol, but FRT cells separately expressed each of the SLC26A family members or TMEM16A. […] PAT1inh-B01 selectivity was also tested by short-circuit current (Isc) in well-differentiated human bronchial epithelial (HBE) cells, which have a complex ion transport mechanism that includes cystic fibrosis transmembrane conductance regulator (CFTR), epithelial Na^+ channel (ENaC), and Ca^+2-activated chloride channels (CaCCs) ([13]). […] Potential PAT1inh-B01 cytotoxicity was studied in FRT cells.
Figure 3 PAT1inh-B01 selectivity and cytotoxicity. […] Cl^–/I^– exchange or I^– influx measured in FRT cells coexpressing YFP and SLC26A isoforms or TMEM16A, with data shown for 25 μM PAT1inh-B01, DMSO vehicle control, and 500 μM niflumic acid (positive control for SLC26A transporters) or 10 μM TMinh-23 (positive control for TMEM16A). […] (C) (left) Short-circuit current (Isc) in well-differentiated HBE cells measured in the absence (top) and presence (bottom) of 25 μM PAT1inh-B01. […]
YFP-based cellular assays of slc26a3, slc26a4, SLC26A9, and TMEM16A function were performed as described previously ([7]). […] The activities of ENaC, CFTR, and CaCC were determined using well-differentiated HBE cells as described previously ([13]). […]

Cc1c(Br)c(C(F)(F)F)nn1CC(=O)N1CCc2nc3cc(-c4ccccc4)[nH]n3c(=O)c2C1 [PAT1inh-B01]
IC50 [1]: 290 nM | inhibition of slc26a3 [2]: did not significantly inhibit
